These molecules were tested on IL-1β release upon NLRP3 activation in peripheral blood mononuclear cells (PBMC) (assay: PBMC IC50 determination assay (IL-1β release, Protocol A ELISA / Protocol B HTRF)). Details: Homo sapiens; PBMC primed with LPS 3 h, compound 30 min, stimulated with ATP (5 mM) or nigericin (10 μM) 1 h; IL-1β in media; read-out: Average PBMC IC50.
Format: cell-based
Procedure: The compounds of the present disclosure were tested for their inhibitory activity against IL-1β release upon NLRP3 activation in peripheral blood mononuclear cells (PBMC).
Isolated cells were seeded into the wells of a 96-well plate and incubated for 3 h with lipopolysaccharide (LPS). Following medium exchange, the compounds of the present disclosure were added (a single compound per well) and the cells were incubated for 30 min. Next, the cells were stimulated either with ATP (5 mM) or nigericin (10 μM) for 1 h and the cell culture media from the wells were collected for further analysis.
The release of IL1-β into the media was determined by a quantitative detection of IL-1β in the media using an IL-1β enzyme-linked immunosorbent assay (ELISA) Ready-SET-Go!, eBioscience cat. […] Subsequently, plates were blocked with blocking buffer for 1 h at room temperature (rt) and after washing with a buffer (PBS with 0.05% Tween-20) incubated with protein standard and culture media. […] Plates were washed and incubated with HRP-streptavidin for 30 min at rt and washed again. The signal was developed after addition of 3,3′,5,5′-tetramethylbenzidine-peroxidase (TMB) until colour appeared and the reaction was stopped by 2 M H2SO4. A microplate spectrophotometer (BioTek) was used to detect signals with 450 nm. The detection range of IL-1β ELISA was 2-150 ng/ml.
Isolated cells were seeded into the wells (280,000 cells/well) of a 96-well plate and incubated for 3 h with lipopolysaccharide (LPS, 1 μg/ml diluted 1000× from a 1 mg/ml stock solution). The compounds of the present disclosure were added (a single compound per well) and the cells were incubated for 30 min. Next, the cells were stimulated with ATP (5 mM final concentration diluted 20× from a 100 mM stock solution) for 1 h and the cell culture media from the wells were collected for further analysis.
The release of IL-1β into the media was determined by quantitative detection of IL-1β in the media using HTRF®, CisBio cat. No. 62HIL1BPEH. Briefly, cell culture supernatant were dispensed directly into the assay plate containing antibodies labelled with the HTRF® donor and acceptor. A microplate spectrophotometer (BMG) was used to detect signals at 655 nm and 620 nm. The detection range of IL-1β HTRF® was 39-6500 pg/ml.

Q: Which IC50 does the source give for CC(C)N1CC(N(c2cnn(C)c2)S(=O)(=O)NC(=O)Nc2c3c(cc4c2CCC4)CCC3)C1 [Compound 64] here?
A: Its IC50 is less than 1000 nM.

Q: For Cn1cc(N(C2CCN(CC(F)(F)F)CC2)S(=O)(=O)NC(=O)Nc2c3c(cc4c2CCC4)CCC3)cn1 [Compound 65], which IC50 is on record?
A: Its IC50 is 1000 to 3000 nM.

Q: For Cn1cc(N(C2CC3(COC3)C2)S(=O)(=O)NC(=O)Nc2c3c(cc4c2CCC4)CCC3)cn1 [Compound 66], which IC50 is on record?
A: Its IC50 is 1000 to 3000 nM.

Q: With CN1CCCC(N(c2cnn(C)c2)S(=O)(=O)NC(=O)Nc2c3c(cc4c2CCC4)CCC3)CC1 (centres unmarked) [Compound 67] as the molecule, how does the IC50 read?
A: Its IC50 is less than 1000 nM.

Q: CN1CCCC1CN(c1cnn(C)c1)S(=O)(=O)NC(=O)Nc1c2c(cc3c1CCC3)CCC2 (centres unmarked) [Compound 68] was tested. Which IC50 did it give?
A: The IC50 was less than 1000 nM.

Q: With Cn1cc(N(C2CC3(C2)CN(CC(F)(F)F)C3)S(=O)(=O)NC(=O)Nc2c3c(cc4c2CCC4)CCC3)cn1 [Compound 69] as the molecule, how does the IC50 read?
A: The IC50 was 3000 to 10000 nM.

Q: With CCc1cc(CC)cc(NC(=O)NS(=O)(=O)N(c2cnn(C)c2)C2CCOCC2)c1 [Compound 70] as the molecule, how does the IC50 read?
A: Its IC50 is 3000 to 10000 nM.

Q: Which IC50 does the source give for CC(C)c1cccc(NC(=O)NS(=O)(=O)N(c2cnn(C)c2)C2CCOCC2)c1 [Compound 71] here?
A: Its IC50 is 10000 to 50000 nM.

Q: For Cn1cc(N(C2CCOCC2)S(=O)(=O)NC(=O)Nc2cc(Cl)cc(Cl)c2)cn1 [Compound 72], which IC50 is on record?
A: Its IC50 is 1000 to 3000 nM.

Q: How did the IC50 turn out when CC(C)c1cc(NC(=O)NS(=O)(=O)N(c2cnn(C)c2)C2CCOCC2)cc(C(C)C)c1 [Compound 73] was run?
A: Its IC50 is 1000 to 3000 nM.

Q: How did the IC50 turn out when CC1CN(CCN(c2cnn(C)c2)S(=O)(=O)NC(=O)Nc2c3c(cc4c2CCC4)CCC3)C1 [Compound 74] was run?
A: Its IC50 is 3000 to 10000 nM.

Q: CCc1cc(NC(=O)NS(=O)(=O)N(c2cnn(C)c2)C2CCOCC2)cc(C(F)(F)F)c1 [Compound 75] was tested. Which IC50 did it give?
A: Its IC50 is less than 1000 nM.

Q: With CCc1cc(C)cc(NC(=O)NS(=O)(=O)N(c2cnn(C)c2)C2CCOCC2)c1 [Compound 76] as the molecule, how does the IC50 read?
A: Its IC50 is 1000 to 3000 nM.

Q: With CCc1cc(Cl)cc(NC(=O)NS(=O)(=O)N(c2cnn(C)c2)C2CCOCC2)c1 [Compound 77] as the molecule, how does the IC50 read?
A: Its IC50 is 1000 to 3000 nM.

Q: Which IC50 does the source give for Cn1cc(N(C2CCOCC2(C)C)S(=O)(=O)NC(=O)Nc2c3c(cc4c2CCC4)CCC3)cn1 (centres unmarked) [Compound 78] here?
A: The IC50 was less than 1000 nM.

Q: Cn1cc(N(C2CCOC(C)(C)C2)S(=O)(=O)NC(=O)Nc2c3c(cc4c2CCC4)CCC3)cn1 (centres unmarked) [Compound 79] was tested. Which IC50 did it give?
A: The IC50 was less than 1000 nM.

Q: CCc1cc(NC(=O)NS(=O)(=O)N(c2cnn(C)c2)C2CCOCC2)cc(CC)c1F [Compound 80] was tested. Which IC50 did it give?
A: The IC50 was 1000 to 3000 nM.

Q: With CCc1cc(NC(=O)NS(=O)(=O)N(c2cnn(C)c2)C2CCOCC2)cc(C(C)C)c1 [Compound 81] as the molecule, how does the IC50 read?
A: The IC50 was 1000 to 3000 nM.

Q: Which IC50 does the source give for CN1CC(N(c2cnn(C)c2)S(=O)(=O)NC(=O)Nc2c3c(cc4c2CCC4)CCC3)CCC1=O (centres unmarked) [Compound 82] here?
A: Its IC50 is less than 1000 nM.

Q: With CN1CC(N(c2cnn(C)c2)S(=O)(=O)NC(=O)Nc2c3c(cc4c2CCC4)CCC3)CC1=O (centres unmarked) [Compound 83] as the molecule, how does the IC50 read?
A: The IC50 was 1000 to 3000 nM.

Q: How did the IC50 turn out when C[C@H]1CC(N(c2cnn(C)c2)S(=O)(=O)NC(=O)Nc2c3c(cc4c2CCC4)CCC3)CCO1 (some centres unmarked) [Compound 84] was run?
A: The IC50 was less than 1000 nM.

Q: With C[C@@H]1CC(N(c2cnn(C)c2)S(=O)(=O)NC(=O)Nc2c3c(cc4c2CCC4)CCC3)CCO1 (some centres unmarked) [Compound 85] as the molecule, how does the IC50 read?
A: The IC50 was less than 1000 nM.

Q: How did the IC50 turn out when Cc1ncc(N(C2CCOCC2)S(=O)(=O)NC(=O)Nc2c3c(cc4c2CCC4)CCC3)cn1 [Compound 86] was run?
A: The IC50 was less than 1000 nM.

Q: How did the IC50 turn out when Cc1noc(N(C2CCOCC2)S(=O)(=O)NC(=O)Nc2c3c(cc4c2CCC4)CCC3)c1C [Compound 87] was run?
A: Its IC50 is less than 1000 nM.

Q: With CC1CCCC(C)C1NC(=O)NS(=O)(=O)N(c1cnn(C)c1)C1CCOCC1 (centres unmarked) [Compound 88] as the molecule, how does the IC50 read?
A: Its IC50 is less than 1000 nM.

Q: Which IC50 does the source give for CC(C)c1cc(Cl)cc(NC(=O)NS(=O)(=O)N(c2cnn(C)c2)C2CCOCC2)c1 [Compound 89] here?
A: Its IC50 is 1000 to 3000 nM.

Q: CCOc1cc(NC(=O)NS(=O)(=O)N(c2cnn(C)c2)C2CCOCC2)cc(OCC)c1 [Compound 90] was tested. Which IC50 did it give?
A: Its IC50 is 10000 to 50000 nM.

Q: How did the IC50 turn out when CN1CCCC(N(c2cnn(C)c2)S(=O)(=O)NC(=O)Nc2cc(Cl)cc(Cl)c2)C1 (centres unmarked) [Compound 91] was run?
A: Its IC50 is less than 1000 nM.

Q: Cn1cc(N(C2CCOCC2)S(=O)(=O)NC(=O)Nc2cc(Cl)cc(OC(F)(F)F)c2)cn1 [Compound 92] was tested. Which IC50 did it give?
A: Its IC50 is 1000 to 3000 nM.

Q: COc1cc(Cl)cc(NC(=O)NS(=O)(=O)N(c2cnn(C)c2)C2CCOCC2)c1 [Compound 93] was tested. Which IC50 did it give?
A: Its IC50 is less than 1000 nM.

Q: With Cn1cc(N(C2CCOCC2)S(=O)(=O)NC(=O)Nc2cc(Cl)cc(Cl)c2F)cn1 [Compound 94] as the molecule, how does the IC50 read?
A: The IC50 was 1000 to 3000 nM.

Q: With Cn1ccc(N(C2CCOCC2)S(=O)(=O)NC(=O)Nc2c3c(cc4c2CCC4)CCC3)c1 [Compound 95] as the molecule, how does the IC50 read?
A: The IC50 was less than 1000 nM.

Q: Which IC50 does the source give for Cn1ncc(N(C2CCOCC2)S(=O)(=O)NC(=O)Nc2c3c(cc4c2CCC4)CCC3)n1 [Compound 96] here?
A: The IC50 was less than 1000 nM.

Q: CCc1cc(NC(=O)NS(=O)(=O)N(c2cnn(C)c2)C2CCCN(C)C2)cc(C(F)(F)F)c1 (centres unmarked) [Compound 97] was tested. Which IC50 did it give?
A: Its IC50 is less than 1000 nM.

Q: Which IC50 does the source give for CC(C)Cc1cc(Cl)cc(NC(=O)NS(=O)(=O)N(c2cnn(C)c2)C2CCOCC2)c1 [Compound 98] here?
A: Its IC50 is 1000 to 3000 nM.

Q: With Cc1nn(C)cc1N(C1CCOCC1)S(=O)(=O)NC(=O)Nc1c2c(cc3c1CCC3)CCC2 [Compound 99] as the molecule, how does the IC50 read?
A: The IC50 was less than 1000 nM.

Q: With Cc1ncc(N(C2CCOCC2)S(=O)(=O)NC(=O)Nc2c3c(cc4c2CCC4)CCC3)c(C)n1 [Compound 100] as the molecule, how does the IC50 read?
A: Its IC50 is 1000 to 3000 nM.

Q: With CC(C)c1cc(Cl)cc(NC(=O)NS(=O)(=O)N(c2cnn(C)c2)C2CCCN(C)C2)c1 (centres unmarked) [Compound 101] as the molecule, how does the IC50 read?
A: Its IC50 is less than 1000 nM.

Q: Which IC50 does the source give for CCc1cc(NC(=O)NS(=O)(=O)N(C[C@@H]2CCCN2C)c2cnn(C)c2)cc(C(F)(F)F)c1 [Compound 102] here?
A: Its IC50 is less than 1000 nM.

Q: Which IC50 does the source give for Cc1nn(C)cc1N(C1CCCN(C)C1)S(=O)(=O)NC(=O)Nc1c2c(cc3c1CCC3)CCC2 (centres unmarked) [Compound 103] here?
A: The IC50 was less than 1000 nM.

Q: How did the IC50 turn out when CC(C)c1ncc(N(C2CCOCC2)S(=O)(=O)NC(=O)Nc2c3c(cc4c2CCC4)CCC3)cn1 [Compound 104] was run?
A: The IC50 was less than 1000 nM.

Q: For CCC(C)c1cc(Cl)cc(NC(=O)NS(=O)(=O)N(c2cnn(C)c2)C2CCOCC2)c1 (centres unmarked) [Compound 105], which IC50 is on record?
A: The IC50 was less than 1000 nM.

Q: For Cn1cc(N(C2CCOCC2)S(=O)(=O)NC(=O)Nc2cc(Cl)cc(OCC(F)(F)F)c2)cn1 [Compound 106], which IC50 is on record?
A: Its IC50 is less than 1000 nM.

Q: With CN1CCC[C@H]1CN(c1cnn(C)c1)S(=O)(=O)NC(=O)Nc1c2c(cc3c1CCC3)CCC2 [Compound 107] as the molecule, how does the IC50 read?
A: The IC50 was less than 1000 nM.

Q: For Cc1csc(N(C2CCOCC2)S(=O)(=O)NC(=O)Nc2c3c(cc4c2CCC4)CCC3)n1 [Compound 108], which IC50 is on record?
A: The IC50 was less than 1000 nM.

Q: CCc1cc(N(C2CCOCC2)S(=O)(=O)NC(=O)Nc2c3c(cc4c2CCC4)CCC3)on1 [Compound 109] was tested. Which IC50 did it give?
A: The IC50 was less than 1000 nM.

Q: With CN1CCC[C@@H]1CN(c1cnn(C)c1)S(=O)(=O)NC(=O)Nc1c2c(cc3c1CCC3)CCC2 [Compound 110] as the molecule, how does the IC50 read?
A: The IC50 was less than 1000 nM.

Q: For CN1CCC1CN(c1cnn(C)c1)S(=O)(=O)NC(=O)Nc1c2c(cc3c1CCC3)CCC2 (centres unmarked) [Compound 111], which IC50 is on record?
A: Its IC50 is less than 1000 nM.

Q: With CN1CCC[C@@H]1CN(c1cnn(C)c1)S(=O)(=O)NC(=O)Nc1cc(Cl)cc(Cl)c1 [Compound 112] as the molecule, how does the IC50 read?
A: Its IC50 is less than 1000 nM.

Q: Which IC50 does the source give for Cc1cc(N(C2CCOCC2)S(=O)(=O)NC(=O)Nc2c3c(cc4c2CCC4)CCC3)sn1 [Compound 113] here?
A: Its IC50 is less than 1000 nM.

Q: How did the IC50 turn out when CCc1cc(NC(=O)NS(=O)(=O)N(C[C@H]2CCCN2C)c2cnn(C)c2)cc(C(F)(F)F)c1 [Compound 114] was run?
A: The IC50 was less than 1000 nM.

Q: How did the IC50 turn out when CCCCc1cc(Cl)cc(NC(=O)NS(=O)(=O)N(c2cnn(C)c2)C2CCOCC2)c1 [Compound 115] was run?
A: Its IC50 is less than 1000 nM.

Q: For Cc1noc(N(C2CCCN(C)C2)S(=O)(=O)NC(=O)Nc2c3c(cc4c2CCC4)CCC3)c1C (centres unmarked) [Compound 116], which IC50 is on record?
A: The IC50 was less than 1000 nM.

— patent publication US12459925B2, “Sulphonyl urea derivatives as NLRP3 inflammasome modulators” (priority 2017, dated 2025)
